The source made the active and inactive calls. The rule behind the calls is not given here.
Columns and labels:
[1] = system: Escherichia coli; test: Antimicrobial activity against Escherichia coli; type: functional, organism-based
[2] = system: [Chlorella] fusca; test: Antimicrobial activity against Chlorella fusca; type: functional, organism-based; details: Scenedesmus fuscus
[3] = target: Tyrosine-protein kinase Lck (Homo sapiens) (UniProt P06239); test: Inhibition of p56 LCK
[4] = system: Artemia; test: Toxicity against brine shrimp; type: organism-based; details: in vivo
[5] = system: Aspergillus pseudoglaucus; test: Antimicrobial activity against Eurotium repens; type: functional, organism-based
[6] = system: Mycotypha microspora; test: Antimicrobial activity against Mycotypha microspora; type: functional, organism-based
[7] = system: Caenorhabditis elegans; test: Nematicide against Caenorhabditis elegans; type: functional, organism-based
[8] = system: Microbotryum violaceum; test: Antimicrobial activity against Microbotryum violaceum; type: functional, organism-based
[9] = system: Priestia megaterium; test: Antimicrobial activity against Bacillus megaterium; type: functional, organism-based
[10] = system: Fusarium oxysporum; test: Antimicrobial activity against Fusarium oxysporum; type: functional, organism-based
[11] = system: Human immunodeficiency virus; test: Inhibition of HIV reverse transcriptase

Chain of Tyrosine-protein kinase Lck (Homo sapiens) (P06239 2-509 limits assumed): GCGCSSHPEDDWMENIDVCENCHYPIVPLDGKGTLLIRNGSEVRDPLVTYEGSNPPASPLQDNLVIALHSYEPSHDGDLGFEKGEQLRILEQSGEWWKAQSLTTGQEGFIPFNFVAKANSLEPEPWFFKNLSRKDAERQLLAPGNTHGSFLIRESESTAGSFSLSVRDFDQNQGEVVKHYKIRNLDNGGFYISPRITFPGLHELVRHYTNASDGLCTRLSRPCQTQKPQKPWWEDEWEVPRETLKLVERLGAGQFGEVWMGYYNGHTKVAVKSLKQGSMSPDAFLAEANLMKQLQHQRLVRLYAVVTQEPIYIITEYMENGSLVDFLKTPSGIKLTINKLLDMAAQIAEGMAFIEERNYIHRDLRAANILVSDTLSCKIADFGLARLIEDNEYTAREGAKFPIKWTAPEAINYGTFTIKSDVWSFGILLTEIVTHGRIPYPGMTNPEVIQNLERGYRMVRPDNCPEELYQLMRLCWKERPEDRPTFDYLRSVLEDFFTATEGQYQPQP

- Activity [3]: inactive
- Activity [11]: inactive
SMILES: C=C1CC[C@@H]2[C@H]([C@H]3[C@H]1C[C@@H](OC(C)=O)[C@@]3(C)O)C2(C)C
- Activity [1]: inactive
- Activity [2]: inactive
- Activity [4]: Non-toxic
- Activity [5]: inactive
- Activity [6]: inactive
- Activity [7]: inactive
- Activity [8]: inactive
- Activity [9]: inactive
- Activity [10]: inactive

Reference: ChEMBL document CHEMBL1150574, “3-Acetoxyspathulenol, a new aromadendrane-type natural product from the soft Coral Parerythropodium fulvum” (J Nat Prod, 2001)
